According to the supplement of paper PMC9386025:

What was measured:
Experiment in all cases: drug sensitivity score (DSS) (DSS (dimensionless)); higher = more sensitive (stronger drug response)
[1] = system: OVSAHO
Outline: (§1)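 Cells, either patient-derived cultures or ovarian cancer cell lines given 100 ng/ml doxycycline for no less than three days to induce shRNA, went into 384-well plates at 1 000 – 1 500 per well over drugs pre-plated in five concentrations across a 10,000-fold range. The plates were held for three days at 37 °C with 5.0 % CO2. Cell viability was then taken from CellTiter-Glo luminescence on a PHERAstar FS. For each drug, a drug sensitivity score from its dose-response curve was obtained by a method described earlier.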

[2] = system: FIMM-PDC3 (patient-derived ovarian cancer cells); settings: genetic perturbation: none (patient-derived cell culture)
Outline: as §1

[3] = system: Kuramochi
Outline: as §1

[4] = system: FIMM-PDC7 (patient-derived ovarian cancer cells); settings: genetic perturbation: none (patient-derived cell culture)
Outline: as §1

[5] = system: FIMM-PDC6 (patient-derived ovarian cancer cells); settings: genetic perturbation: none (patient-derived cell culture)
Outline: as §1

[6] = system: FIMM-PDC4 (patient-derived ovarian cancer cells); settings: genetic perturbation: none (patient-derived cell culture)
Outline: as §1

[7] = system: JHOS2
Outline: as §1

[8] = system: FIMM-PDC1 (patient-derived ovarian cancer cells); settings: genetic perturbation: none (patient-derived cell culture)
Outline: as §1

[9] = system: FIMM-PDC5 (patient-derived ovarian cancer cells); settings: genetic perturbation: none (patient-derived cell culture)
Outline: as §1

[10] = genetic perturbation: DOX-induced PTK7 shRNA knockdown
[11] = genetic perturbation: DOX-induced control shRNA

SMILES | drug sensitivity score [1, 10] | drug sensitivity score [1, 11] | drug sensitivity score [2] | drug sensitivity score [3, 10] | drug sensitivity score [3, 11] | drug sensitivity score [4] | drug sensitivity score [5] | drug sensitivity score [6] | drug sensitivity score [7, 10] | drug sensitivity score [7, 11] | drug sensitivity score [8] | drug sensitivity score [9]
O=C(NOC[C@H](O)CO)c1ccc(F)c(F)c1Nc1ccc(I)cc1F | 4.6 | 4.2 | 3 | 5.9 | 4 | 3.1 | 3.9 | 9.4 | 0.6 | 6.2 | < 0 | 7.8
CN1CCC(CNc2ccc3ncc(-c4cccc(OC(F)(F)F)c4)n3n2)CC1 [SGI-1776] | 7.9 | 7.2 | 6 | 5.3 | 5.7 | 9.1 | 6.8 | 6.8 | 6.2 | 5.9 | 5.6 | 6.9
CCNCCS(=O)(=O)NC[C@@]1(c2ccccc2)SC(NC(=O)C(C)(C)C)=NN1C(=O)C(C)(C)C [Litronesib] | 8.2 | 9.3 | 11.2 | 10.7 | 3.1 | 4.3 | 2.8 | 15.2 | 8.5 | 7.7 | 7.8 | 21.2
CNc1ncc2cc(-c3cc(NC(=O)NCCC(C)(C)C)c(F)cc3C)c(C)nc2n1 | 12.2 | 9.2 | 7.4 | 11.6 | 6.2 | 6.2 | 14.3 | 11.9 | 7.6 | 13.6 | 1.85 | 18.2
Cc1c(-c2ccc(N3CCc4cccc(C(=O)Nc5nc6ccccc6s5)c4C3)nc2C(=O)O)cnn1CC12CC3CC(CC(C3)C1)C2 | 19.8 | < 0 | 9.6 | 1.25 | 3.3 | 7.6 | 24.8 | 1.2 | 2.4 | < 0 | 7.4 | 13.9
C[C@@H](Oc1cc(-n2cnc3ccc(CN4CCN(C)CC4)cc32)sc1C(N)=O)c1ccccc1C(F)(F)F | 16.7 | 8.4 | 12 | 12.6 | 6.3 | 8.5 | 1.6 | 12.1 | 25 | 7.5 | 9.8 | 24.1
CC(C)(C)c1cc(NC(=O)Nc2ccc(Oc3ccnc4[nH]c(=O)cnc34)cc2F)n(-c2ccccc2)n1 | 3.9 | 9.1 | 4.2 | 2.15 | 9.4 | 0.3 | 0.4 | 0.7 | 1.8 | 8.3 | 3.9 | 0.3
C/C=C1\NC(=O)[C@H]2CSSCC/C=C/[C@H](CC(=O)N[C@H](C(C)C)C(=O)N2)OC(=O)[C@H](C(C)C)NC1=O [Romidepsin] | 28.1 | 25.4 | 29.6 | 30.7 | 21.6 | 27.2 | 31.1 | 25.6 | 24.3 | 24.1 | 26.2 | 26.9
CN(C)C1CCN(C(=O)c2ccc(NC(=O)Nc3ccc(-c4nc(N5CCOCC5)nc(N5CCOCC5)n4)cc3)cc2)CC1 [Gedatolisib] | 12.7 | 13.2 | 9 | 11.3 | 10.8 | 10.7 | 16.9 | 15.7 | 6.9 | 11.7 | 10.5 | 16.9
Nc1ncnc2c1nc(Cl)n2[C@@H]1O[C@H](CO)[C@@H](O)[C@H]1O [8-chloro-adenosine] | 18.4 | 6.9 | 6 | 5.75 | 12.1 | 13.8 | 10.4 | 5.9 | 12.9 | 9.4 | 7.45 | 20.2
COc1cc2c(cc1-c1c(C)noc1C)ncc1[nH]c(=O)n([C@H](C)c3ccccn3)c12 [I-BET151] | 5.7 | 10.3 | 4.5 | 10.6 | 3.7 | 9.9 | 5.9 | 3.9 | 8.4 | 6.2 | 3.15 | 8.9
COc1cc(NS(C)(=O)=O)ccc1Nc1c2ccccc2nc2ccccc12 [Amsacrine] | 5.3 | < 0 | 6.3 | 1.25 | 1.4 | 4 | 3.9 | 5.1 | 3.3 | 4.4 | 4.55 | 5.8
COc1cc2c(Nc3ccc(Cl)c(Cl)c3F)ncnc2cc1OC[C@@H]1C[C@@H]2CN(C)C[C@@H]2C1 [Tesevatinib] | 0.5 | 1.9 | 13.6 | 1.35 | 1 | 11.5 | 16.4 | 19.2 | < 0 | 3.1 | 2.25 | 23.9
CCn1cc(-c2ccnc3[nH]c(-c4cccc(CN(C)C)c4)cc23)c(-c2ccc(NC(=O)N(C)C)cc2)n1 | 0.4 | < 0 | 2.8 | < 0 | < 0 | 0.2 | < 0 | 2.9 | < 0 | 0.4 | 2.25 | 4.1
CNC(=O)CN1CCC(Oc2cc3c(Nc4cccc(Cl)c4F)ncnc3cc2OC)CC1 [Sapitinib] | < 0 | < 0 | 8.8 | 0.5 | < 0 | 10.1 | 11.4 | 16.3 | < 0 | < 0 | 0.6 | 16.5
CC[C@@]1(O)C(=O)OCc2c1cc1n(c2=O)Cc2cc3c(CN(C)C)c(O)ccc3nc2-1 [Topotecan] | 8.7 | 7.5 | 12.4 | 6.85 | 6.4 | 12.2 | 12.8 | 7.8 | 10.5 | 11.5 | 10.3 | 14.4
Cc1cc2c(C(=O)NC[C@H](C)c3ccccc3)c(O)c(O)cc2c(O)c1-c1c(C)cc2c(C(=O)NC[C@H](C)c3ccccc3)c(O)c(O)cc2c1O [Sabutoclax] | 4.7 | 6.5 | 11.8 | 7.8 | 6.8 | 3.8 | 6.4 | 6.9 | 11.1 | 10.8 | 4.75 | 5.2
O=C(Nc1cccc(Nc2ncc(Br)c(NCCc3cnc[nH]3)n2)c1)N1CCCC1 [BX-912] | 3.8 | 2.2 | 1.2 | 2.35 | 3.7 | 9.2 | 2.2 | 3.9 | 5.5 | 2.4 | 2.85 | 6.9
CC[C@@H](C(=O)[C@@H](C)[C@@H](O)[C@H](C)[C@@H]1O[C@@H]([C@@H](CC)C(=O)O)CC[C@@H]1C)[C@H]1O[C@]2(C=C[C@@H](O)[C@]3(CC[C@@](C)([C@H]4CC[C@](O)(CC)[C@H](C)O4)O3)O2)[C@H](C)C[C@@H]1C [Salinomycin] | 29.2 | 4.8 | 18.8 | 19.4 | 21.6 | 14.7 | 8.1 | 16.8 | 24.2 | 15.5 | 11.6 | 18.4
CN1CCN(CCOc2cc(OC3CCOCC3)c3c(Nc4c(Cl)ccc5c4OCO5)ncnc3c2)CC1 [Saracatinib] | 12.4 | 6.6 | 12 | 10.6 | 5.2 | 5.8 | 9.4 | 13.7 | 1.4 | 7.3 | 4.6 | 15.2
CNC(=O)c1ccccc1Nc1nc(Nc2ccc3c(c2OC)CCC[C@H](N2CCN(CCO)CC2)C3)ncc1Cl | 12.4 | 7.5 | 6.9 | 7.7 | 6.3 | 5.5 | 5.3 | 9.6 | 7.1 | 5.6 | 7.5 | 10.2
Cc1[nH]c2ccccc2c1CCNCc1ccc(/C=C/C(=O)NO)cc1 [Panobinostat] | 13.5 | 11.2 | 13.7 | 19 | 7.2 | 8.2 | 12.4 | 8.1 | 13 | 13.6 | 11 | 15
CCS(=O)(=O)Nc1ccc(Oc2ccc(F)cc2F)c(-c2cn(C)c(=O)c3[nH]ccc23)c1 [Mivebresib] | 19.7 | 23.8 | 15.3 | 25.8 | 14.7 | 16.3 | 15.3 | 12.2 | 18.2 | 16.6 | 13.8 | 21.9
CCN(CC)CCCC(C)Nc1ccnc2cc(Cl)ccc12 (configuration not stated) [Chloroquine] | 8.6 | 5.8 | 8.8 |  |  | 7.7 | 5.8 | 9.1 | 8.4 | 7.8 | 7.6 | 9
Nc1ccn([C@@H]2O[C@H](CO)[C@@H](O)[C@@H]2O)c(=O)n1 [Cytarabine] | 4.1 | < 0 | 2.1 |  |  | 5.7 | 6 | 3.6 | 13.4 | 7.2 | < 0 | 10.5
CC[C@]1(O)C[C@H]2CN(CCc3c([nH]c4ccccc34)[C@@](C(=O)OC)(c3cc4c(cc3OC)N(C=O)[C@H]3[C@@](O)(C(=O)OC)[C@H](OC(C)=O)[C@]5(CC)C=CCN6CC[C@]43[C@@H]65)C2)C1 [Vincristine] | 3.4 | 9.1 | 13.8 | 4.75 | 2.7 | 5 | 0.5 | 8.9 |  |  | 14.9 | 6.4
Cc1ccc(C(=O)Nc2ccc(CN3CCN(C)CC3)c(C(F)(F)F)c2)cc1C#Cc1cnc2cccnn12 [Ponatinib] | 10.2 | 8.3 |  | 7.8 | 8 |  |  |  | 4.7 | 6.9 |  | 
